# Assay results reported in patent US11576911B2, “Composition and method for treatment of depression and psychosis in humans” (Glytech LLC, priority 2012, dated 2023).
# Like-named read-outs stand apart in the source and are kept apart here.
# Columns and labels:
# Male C57Bl/6J mice [1] = conditions: previously demonstrated, cited from earlier work
# [2] = Pharmacokinetics of D-cycloserine in rodents (plasma, IP); type: in vivo, mice
# Procedure: For this study, male C57BL/6J mice (8 weeks old) from Jackson Laboratories (Bar Harbor, Me.) were used.
# For each treatment group a total of 12 mice were dosed: 4 mice were collected at 30, 60 and 120 min. Mean plasma level was computed over this time period.
# [3] = Pharmacokinetics of D-cycloserine in humans (literature)
# Male C57Bl/6J mice [4] = assay: Elevated plus maze (EPM), DOI 2 mg/kg in all conditions; type: in vivo; conditions: for Distance Traveled Open (DTO) Mean / Percent open (PCT) Mean: Table 1
# Male BalbC/J mice = assay: Rodent forced swim test (FST), immobility time; type: in vivo
# Text: Male BalbC/J mice (8 weeks old) from Jackson Laboratories (Bar Harbor, Me.) were used. Upon receipt, mice were assigned unique identification numbers (tail marked) and were group housed in OPTImice cages. All animals were acclimated to the colony room for 1 week prior to testing. During the period of acclimation, animals were examined on a regular basis, handled, and weighed to assure adequate health and suitability. Animals were maintained on a 12/12 light/dark cycle. The room temperature was maintained between 20 and 23° C. with a relative humidity maintained between 30% and 70%. Chow and water were provided ad libitum for the duration of the study. All testing was performed during the animal's light cycle phase.
# Mice were acclimated to the test room at least 1 hour prior to commencing the test. The forced swimming test consisted of one 6-minute session of forced swimming in individual opaque cylinders (15 cm tall×10 cm wide, 1000 ml beakers) containing fresh tap water at a temperature of 23±2° C. and a depth of 12 cm (approximately 800 ml) for each test animal. The time the animal spent immobile was recorded over the 6 min trial. Every 1 min the cumulative immobility time was recorded from the start of the session and noted on the study data record sheet. Immobility was defined as the postural position of floating in the water. The animals were generally observed with the back slightly hunched and the head above water with no movements or with small stabilizing movements of the limbs. After the swim test, each animal was placed in a pre-heated cage with a heating pad and allowed to dry.
# The main variable used to represent immobility in this test was the total time immobile during the 6-min test period. Statistics were performed by analysis of variance (ANOVA) with Dunnett post-hoc testing vs. the control condition or by t-test as appropriate.
# Sertraline, a known antidepressant, is used as a positive control.
# For this study, further NMDAR antagonist compounds were tested for their ability to reduce immobility time in the rodent FST test, indicative of potential anti-depressant effects, and further 5-HT2AR antagonists were tested for their ability to produce reductions of time spent in the open arms of the EPM, indicative to potential liability to induce anxiety, akathisia and suicidality in humans
# [5] = acidic gastric conditions, gastric emptying up to 3 hours; cited from earlier work
# [6] = cited from earlier work; for Serum concentration: mean dose 8.8 mg/kg, patients (Hung et al.)
compound,measurement,setting,value
"N[C@@H]1CON=C1O [D-cycloserine, 3-Isoxazolidinone, 4-amino-, (4R)-(9CI)]","Distance travelled in the open arm and % time in the open arms, in words","Male C57Bl/6J mice [1]; DCS 300 mg/kg in combination with EMD281,014",numerical increases
same,"Distance travelled in the open arm and % time in the open arms, in words","Male C57Bl/6J mice [1]; DCS 300 mg/kg in the presence of MDL100,907",significantly increased
same,Mean plasma level over 30-120 min,"[2]; 30 mg/kg IP, mice",below 25 microgram/mL
same,Plasma levels over 30-120 min,"[2]; doses of 100 mg/kg or above IP, mice",greater than 25 microgram/mL
same,Maximum tolerated blood level,[2]; suggested from maximum tolerated dose,approximately 125 ug/mL
same,Sustained blood levels,"[3]; 500 mg/day, human PK studies",below 25 microgram/mL
same,"Sustained plasma level, median","[3]; corresponding to AUC over 24 hr, 500 mg (Zhu et al.)",8.9 microgram/mL
same,Human dose required to produce a serum level in excess of 25 microgram/mL,[3]; from dose-serum concentration relationship of Hung et al.,exceeding 10 mg/kg
same,"Reversal of the effects of MDL100,907 in the EPM, in words","Male C57Bl/6J mice [4]; DCS 300 mg/kg vs 30 mg/kg with MDL100,907 (Table 1 lines 6,7)","significantly reverses the effects of MDL100,907 at a dose of 300 mg/kg, but not 30 mg/kg"
same,"Effect in the EPM in the presence of aripiprazole, in words",Male C57Bl/6J mice [4]; DCS 300 mg/kg with aripiprazole 1 mg/kg,no significant effect
same,"Reversal of the effects of lurasidone in the EPM, in words",Male C57Bl/6J mice [4]; DCS 300 mg/kg with lurasidone 0.1-0.3 mg/kg,significantly reverses the effects of lurasidone
same,"Reversal of the effects of quetiapine in the EPM, in words",Male C57Bl/6J mice [4]; DCS 300 mg/kg with quetiapine 30 mg/kg,reversed at trend level
same,Distance Traveled Open (DTO) Mean,Male C57Bl/6J mice [4]; 30 mg/kg ip alone,295.8
same,Percent open (PCT) Mean,Male C57Bl/6J mice [4]; 30 mg/kg ip alone,44.6%
same,Distance Traveled Open (DTO) Mean,Male C57Bl/6J mice [4]; 300 mg/kg ip alone,287.5
same,Percent open (PCT) Mean,Male C57Bl/6J mice [4]; 300 mg/kg ip alone,45.4%
same,Mean distance travelled in the open arm of the EPM,"Male C57Bl/6J mice [4]; Table 6, 300 mg/kg, DOI 2 mg/kg added",369.70
same,"Effect on distance travelled in open arm / % time in open arm of EPM, in words","Male C57Bl/6J mice [4]; agent alone vs control, doses of Tables 1 and 2",selectively increases % time in open arms at a dose of 300 mg/kg but not at a dose of 30 mg/kg
same,"Effect on immobility in the forced swim test, in words",Male BalbC/J mice; DCS 30 mg/kg in combination with lurasidone,did not significantly reduce immobility
same,"Effect in the forced swim test assay, in words","Male BalbC/J mice; DCS 30 mg/kg, IP or PO (FIGS. 1 and 2)",no significant effect
same,"Effect in the forced swim test assay, in words","Male BalbC/J mice; DCS 100 mg/kg or above, PO or IP (FIGS. 1 and 2)",highly significant
same,"Effect on immobility in the forced swim test, in words",Male BalbC/J mice; DCS 300 mg/kg in combination with aripiprazole,did not significantly reduce immobility
same,"Effect on immobility in the forced swim test, in words",Male BalbC/J mice; DCS 300 mg/kg in combination with brexpiprazole,significantly reduced immobility
same,"Effect on immobility in the forced swim test, in words",Male BalbC/J mice; DCS 300 mg/kg in combination with lurasidone 0.2 to 3 mg/kg,significantly reduced immobility
same,Hydrolysis of orally administered D-cycloserine during gastric emptying,[5],up to 50%
same,Serum concentration,[6]; 2 hr after dosing,19.7 microgram/mL
same,Serum concentration,[6]; 6 hr after dosing,18.1 microgram/mL
same,"AUC over 24 hr, median","[6]; single 500 mg dose, fasting, humans (Zhu et al.)",214 microgram-hr/mL
